The supplement of paper PMC4862054

What was measured:
BT-474 [1] = experiment: normalised viability (% of control), CellTiter-Blue; higher = more viable cells (100 = DMSO, 0 = benzethonium chloride kill control); settings: 1 nM; incubation time: 72 h
Method: (§1)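 DSRT, CellTiter-Blue viability, 72 h incubation. Signal is normalised to DMSO and benzethonium chloride controls. Value is the normalised response at dose 1.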

BT-549 [2] = experiment: as above; settings: 1 nM; incubation time: 72 h
Method: as §1

CAL-120 = experiment: as above; settings: 1 nM; incubation time: 72 h
Method: as §1

CAL-148 = experiment: as above; settings: 1 nM; incubation time: 72 h
Method: as §1

CAL-51 = experiment: as above; settings: 1 nM; incubation time: 72 h
Method: as §1

CAL-85-1 = experiment: as above; settings: 1 nM; incubation time: 72 h
Method: as §1

HCC1143 [3] = experiment: as above; settings: 1 nM; incubation time: 72 h
Method: as §1

HCC1599 = experiment: as above; settings: 1 nM; incubation time: 72 h
Method: as §1

HCC1937 [4] = experiment: as above; settings: 1 nM; incubation time: 72 h
Method: as §1

HDQ-P1 [5] = experiment: as above; settings: 1 nM; incubation time: 72 h
Method: as §1

Hs578T [6] = experiment: as above; settings: 1 nM; incubation time: 72 h
Method: as §1

MDA-MB-231 = experiment: as above; settings: 1 nM; incubation time: 72 h
Method: as §1

MDA-MB-436 [7] = experiment: as above; settings: 1 nM; incubation time: 72 h
Method: as §1

MDA-MB-453 = experiment: as above; settings: 1 nM; incubation time: 72 h
Method: as §1

MFM-223 [8] = experiment: as above; settings: 1 nM; incubation time: 72 h
Method: as §1

SK-BR-3 [9] = experiment: as above; settings: 1 nM; incubation time: 72 h
Method: as §1

BT-474 [10] = experiment: drug sensitivity score (DSS), CellTiter-Glo (DSS (AUC-based score)); higher = stronger drug effect (viability inhibition or cytotoxicity); extreme values may be limits of the assay; settings: incubation time: 72 h
Method in brief: (§2)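 After 72 h of incubation in 384-well plates with compound at 5 concentrations (10-fold steps, 10,000-fold range set per compound), breast cancer cell lines seeded in 20 µl suspension were read first for CellTox Green fluorescence at 485/520 nm. CellTiter-Glo luminescence was measured next, after 10 min at room temperature. Normalisation on each plate used 0.1 % DMSO and a positive kill control, and the drug sensitivity score was computed from the area under the fitted dose-response curve.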

BT-549 [11] = experiment: as above; settings: incubation time: 72 h
Method in brief: as §2

HCC1143 [12] = experiment: as above; settings: incubation time: 72 h
Method in brief: as §2

HCC1937 [13] = experiment: as above; settings: incubation time: 72 h
Method in brief: as §2

HDQ-P1 [14] = experiment: as above; settings: incubation time: 72 h
Method in brief: as §2

Hs578T [15] = experiment: as above; settings: incubation time: 72 h
Method in brief: as §2

MCF-10A = experiment: as above; settings: incubation time: 72 h
Method in brief: as §2

MDA-MB-436 [16] = experiment: as above; settings: incubation time: 72 h
Method in brief: as §2

MDA-MB-468 = experiment: as above; settings: incubation time: 72 h
Method in brief: as §2

MFM-223 [17] = experiment: as above; settings: incubation time: 72 h
Method in brief: as §2

SK-BR-3 [18] = experiment: as above; settings: incubation time: 72 h
Method in brief: as §2

Compound | normalised viability (BT-474 [1]) [%] | normalised viability (BT-549 [2]) [%] | normalised viability (CAL-120) [%] | normalised viability (CAL-148) [%] | normalised viability (CAL-51) [%] | normalised viability (CAL-85-1) [%] | normalised viability (HCC1143 [3]) [%] | normalised viability (HCC1599) [%] | normalised viability (HCC1937 [4]) [%] | normalised viability (HDQ-P1 [5]) [%] | normalised viability (Hs578T [6]) [%] | normalised viability (MDA-MB-231) [%] | normalised viability (MDA-MB-436 [7]) [%] | normalised viability (MDA-MB-453) [%] | normalised viability (MFM-223 [8]) [%] | normalised viability (SK-BR-3 [9]) [%] | drug sensitivity score (BT-474 [10]) | drug sensitivity score (BT-549 [11]) | drug sensitivity score (HCC1143 [12]) | drug sensitivity score (HCC1937 [13]) | drug sensitivity score (HDQ-P1 [14]) | drug sensitivity score (Hs578T [15]) | drug sensitivity score (MCF-10A) | drug sensitivity score (MDA-MB-436 [16]) | drug sensitivity score (MDA-MB-468) | drug sensitivity score (MFM-223 [17]) | drug sensitivity score (SK-BR-3 [18])
COc1cc2nccc(Oc3ccc(NC(=O)Nc4cc(C)on4)c(Cl)c3)c2cc1OC [Tivozanib] | 95 | 81.1 | 106 | 103 | 101 | 114 | 103 | 115 | 92.5 | 97.6 | 103 | 88 | 102 | 97.4 | 100 | 102 | 0 | 0 | 0 | 1.42 | 1.67 | 0 | 1.39 | 0 | 0 | 7.56 | 0
CC1=C(/C=C/C(C)=C/C=C/C(C)=C/C(=O)O)C(C)(C)CCC1 [Tretinoin] | 91.1 | 98.4 | 86.9 | 103 | 93.5 | 87.1 | 94.9 | 99.3 | 117 | 114 | 116 | 97.2 | 90.4 | 100 | 98 | 97.7 | 0 | 0 | 0 | 0 | 0 | 1.26 | 4.05 | 0 | 2.13 | 0 | 7.99
Oc1ncc(N(CCCl)CCCl)c(O)n1 [Uracil mustard] | 86.6 | 101 | 82.3 | 103 | 90.7 | 88.9 | 95.7 | 94.5 | 101 | 110 | 109 | 99.4 | 96.3 | 99.1 | 97.4 | 97.3 | 0 | 0 | 0 | 0 | 0 | 0 | 0 | 0 | 0 | 0 | 0
CCCCC(=O)OCC(=O)[C@]1(O)Cc2c(O)c3c(c(O)c2[C@@H](O[C@H]2C[C@H](NC(=O)C(F)(F)F)[C@H](O)[C@H](C)O2)C1)C(=O)c1c(OC)cccc1C3=O [Valrubicin] | 92.9 | 107 | 92.9 | 88.8 | 89.7 | 83.5 | 86.5 | 75.7 | 81.6 | 96.8 | 103 | 79.7 | 106 | 97.6 | 90.3 | 85.5 | 3.82 | 9.05 | 8.06 | 4.28 | 5.59 | 5.56 | 8.72 | 9.03 | 11.1 | 1.28 | 12.4
CCCS(=O)(=O)Nc1ccc(F)c(C(=O)c2c[nH]c3ncc(-c4ccc(Cl)cc4)cc23)c1F [Vemurafenib] | 99.8 | 114 | 95.3 | 98.4 | 94.4 | 91.6 | 93.8 | 83.4 | 119 | 96.3 | 112 | 113 | 91.1 | 89.8 | 90.7 | 92.2 | 0.633 | 0 | 0 | 0 | 0 | 0 | 0 | 0 | 0 | 0 | 0
